Source: ChEMBL document CHEMBL5370583, “Cytotoxic Ergosteroids from a Strain of the Fungus Talaromyces adpressus” (J Nat Prod, 2023)
pIC50: −log10 of the molar value. Active and inactive are the calls of the source. No cut-off for these calls is given here.

Experiments:
[1] = Immunosuppressive activity in C57BL/6J mouse B-lymphocyte assessed as inhibition of LPS-induced cell proliferation at 0.3125 to 40 uM incubated for 72 hrs by flow cytometry analysis; format: functional, cell-based; settings: dose 0.3125-40 µM
SU-DHL-2 [2] = test: Cytotoxicity against human SUDHL2 cells assessed as cell growth inhibition by MTT assay; format: functional, cell-based
A549 = test: Cytotoxicity against human A549 cells assessed as cell growth inhibition by MTT assay; format: functional, cell-based
[3] = Cytotoxicity against human […] cells assessed as cell growth inhibition by MTT assay; format: functional, cell-based
HL-60 = test: Cytotoxicity against human HL-60 cells assessed as cell growth inhibition by MTT assay; format: functional, cell-based
HepG2 = test: Cytotoxicity against human HepG2 cells assessed as cell growth inhibition by MTT assay; format: functional, cell-based
B-cell line = test: Immunosuppressive activity in C57BL/6J mouse B-lymphocyte assessed as inhibition of LPS-induced cell proliferation incubated for 72 hrs by flow cytometry analysis; format: functional, cell-based
SU-DHL-2 [4] = test: Induction of apoptosis in human SUDHL2 cells assessed as early apoptotic cells at 10 uM measured by Annexin V-FITC/PI staining based flow cytometry assay (reference value: 4.52%); format: functional
SU-DHL-2 [5] = test: Induction of apoptosis in human SUDHL2 cells assessed as necrotic cells at 2 uM measured by Annexin V-FITC/PI staining based flow cytometry assay (reference value: 0.23%); format: functional
SU-DHL-2 [6] = test: Induction of apoptosis in human SUDHL2 cells assessed as necrotic cells at 10 uM measured by Annexin V-FITC/PI staining based flow cytometry assay (reference value: 0.23%); format: functional
SU-DHL-2 [7] = test: Induction of apoptosis in human SUDHL2 cells assessed as late apoptotic cells at 10 uM measured by Annexin V-FITC/PI staining based flow cytometry assay (reference value: 3.10%); format: functional
SU-DHL-2 [8] = test: Induction of apoptosis in human SUDHL2 cells assessed as viable cells at 10 uM measured by Annexin V-FITC/PI staining based flow cytometry assay (reference value: 92.2%); format: functional; settings: read-out: Activity
SU-DHL-2 [9] = test: Induction of apoptosis in human SUDHL2 cells assessed as late apoptotic cells at 2 uM measured by Annexin V-FITC/PI staining based flow cytometry assay (reference value: 3.10%); format: functional
SU-DHL-2 [10] = test: Induction of apoptosis in human SUDHL2 cells assessed as viable cells at 2 uM measured by Annexin V-FITC/PI staining based flow cytometry assay (reference value: 92.2%); format: functional; settings: read-out: Activity
SU-DHL-2 [11] = test: Induction of apoptosis in human SUDHL2 cells assessed as early apoptotic cells at 2 uM measured by Annexin V-FITC/PI staining based flow cytometry assay (reference value: 4.52%); format: functional

Structure (SMILES) | inhibition [1] | pIC50 (SU-DHL-2 [2]) | pIC50 (A549) | pIC50 [3] | pIC50 (HL-60) | pIC50 (HepG2) | further results
CC(C)[C@@H](C)/C=C/[C@@H](C)[C@H]1CCC(=O)[C@]23CC(=O)[C@@H]4CC(=O)CC[C@]4(C)[C@H]2CC[C@]13C | inactive | – | – | – | – | – | –
C=C(CC[C@@H](C(=O)O)[C@H]1CC[C@H]2C3=C[C@@H](O)[C@@]45O[C@@H]4[C@H](O)[C@@H]4O[C@@H]4[C@]5(C)[C@H]3CC[C@]12C)C(C)C | inactive | < 4.40 | < 4.40 | < 4.40 | < 4.40 | < 4.40 | –
CC(C)[C@@H](C)/C=C/[C@@H](C)[C@H]1CC(=O)C2=C3[C@H](O)[C@H]4O[C@]45C[C@@H](O)CC[C@]5(C)[C@@]3(O)CC[C@@]21C | inactive | – | – | – | – | – | –
CC(C)[C@@H](C)/C=C/[C@@H](C)[C@H]1CC(=O)C2=C3[C@H](O)[C@H]4O[C@]45C[C@@H](O)CC[C@]5(C)[C@H]3CC[C@@]21C | inactive | – | – | – | – | – | –
CC(C)[C@@H](C)/C=C/[C@@H](C)[C@H]1CC[C@]2(O)C3=CC(=O)C4=CC(=O)CC[C@]4(C)[C@@]3(O)CC[C@]12C | inactive | 5.12 | 4.51 | 4.52 | 5.06 | 4.72 | –
COc1cc([C@@H]2c3cc4c(cc3[C@@H](O[C@@H]3O[C@@H]5CO[C@@H](C)O[C@H]5[C@H](O)[C@H]3O)[C@H]3COC(=O)[C@H]23)OCO4)cc(OC)c1O [ETOPOSIDE] | – | 5.68 | 5.00 | 4.28 | 5.68 | 4.68 | –
COC1(OC)CC[C@@]2(C)[C@H](C1)C(=O)C=C1[C@@H]2[C@H](OC(C)=O)C[C@]2(C)[C@@H]([C@H](C)/C=C/C(C)C(C)(C)O)CC[C@@H]12 (single isomer, unassigned) | inactive | 4.60 | 4.89 | 4.96 | 5.08 | 4.54 | –
CC(C)[C@@H](C)/C=C/[C@@H](C)[C@H]1CCC(=O)[C@]23CC(=O)C4=CC(=O)CC[C@]4(C)[C@H]2CC[C@]13C [DANKASTERONE A] | inactive | 5.18 | 4.60 | < 4.40 | 5.42 | 4.92 | –
C=C(CC[C@@H](C(=O)O)[C@H]1CC[C@H]2C3=C[C@@H](O)[C@@]45O[C@@H]4C(=O)C=C[C@]5(C)[C@H]3CC[C@]12C)C(C)C | inactive | 5.16 | < 4.40 | 4.89 | 5.14 | 4.62 | –
CC(C)[C@@H](C)/C=C/[C@@H](C)[C@H]1C[C@@H](O)C2=C3C=CC4=CC(=O)CC[C@]4(C)[C@@]3(O)CC[C@@]21C | – | < 4.40 | < 4.40 | < 4.40 | < 4.40 | < 4.40 | pIC50 (B-cell line): 5.07
CC(C)[C@@H](C)/C=C/[C@@H](C)[C@H]1CC[C@@]2(O)C3=CC(=O)C4=CC(=O)CC[C@]4(C)[C@@]3(O)CC[C@]12C | inactive | – | – | – | – | – | –
COC(=O)[C@@]12CC[C@@]3(C)[C@]1(O)C(=O)C=C1[C@]4(O)CC[C@H]([C@H](C)/C=C/[C@H](C)C(C)C)[C@@]4(C)CC[C@@]13OO2 | inactive | < 4.40 | < 4.40 | < 4.40 | < 4.40 | < 4.40 | –
CO[C@@H]1C=C2[C@@H]3CC[C@H]([C@H](C)/C=C/[C@H](C)C(C)C)[C@@]3(C)C[C@H]3O[C@@]23[C@@]2(C)CC[C@H](O)C[C@]12O | inactive | 6.40 | 4.74 | 4.85 | 5.21 | 4.62 | Activity (SU-DHL-2 [4]): 15%; Activity (SU-DHL-2 [5]): 0.87%; Activity (SU-DHL-2 [6]): 4.02%; Activity (SU-DHL-2 [7]): 54%; viability at 10 µM (SU-DHL-2 [8]): 26.9%; Activity (SU-DHL-2 [9]): 14.3%; viability at 2 µM (SU-DHL-2 [10]): 78.2%; Activity (SU-DHL-2 [11]): 6.67%
CO[C@@H]1C=C2C=CC3=C4C(=O)C[C@H]([C@H](C)/C=C/[C@H](C)C(C)C)[C@@]4(C)CC[C@]3(O)[C@@]2(C)CC1 | inactive | < 4.40 | < 4.40 | < 4.40 | 4.60 | < 4.40 | –
COC(=O)[C@@]12CC[C@@]3(C)[C@]1(O)C(=O)C=C1[C@@]4(O)CC[C@H]([C@H](C)/C=C/[C@H](C)C(C)C)[C@@]4(C)CC[C@@]13OO2 | inactive | < 4.40 | < 4.40 | < 4.40 | 4.49 | < 4.40 | –
CC(C)[C@@H](C)/C=C/[C@@H](C)[C@H]1CC[C@]2(O)C3=CC(=O)[C@@H]4[C@@]5(O)CC[C@]4(C)[C@]3(CC[C@]12C)OC5=O | inactive | – | – | – | – | – | –
CC(=O)O[C@@H]1C[C@]2(C)[C@@H]([C@H](C)/C=C/[C@H](C)C(C)(C)O)CC[C@H]2C2=CC(=O)[C@H]3CC(=O)CC[C@]3(C)[C@H]21 | inactive | 4.72 | 4.66 | 5.04 | 4.96 | 4.60 | –
